Common to all, as to type: cell-based
The target in test [1] is T1, P2X7 receptor (mP2X7R) (Mus musculus, UniProt Q9Z1M0).
T1 construct: gene P2rx7; natively expressed in J774.G8 macrophages
T1 sequence (Q9Z1M0 1-595): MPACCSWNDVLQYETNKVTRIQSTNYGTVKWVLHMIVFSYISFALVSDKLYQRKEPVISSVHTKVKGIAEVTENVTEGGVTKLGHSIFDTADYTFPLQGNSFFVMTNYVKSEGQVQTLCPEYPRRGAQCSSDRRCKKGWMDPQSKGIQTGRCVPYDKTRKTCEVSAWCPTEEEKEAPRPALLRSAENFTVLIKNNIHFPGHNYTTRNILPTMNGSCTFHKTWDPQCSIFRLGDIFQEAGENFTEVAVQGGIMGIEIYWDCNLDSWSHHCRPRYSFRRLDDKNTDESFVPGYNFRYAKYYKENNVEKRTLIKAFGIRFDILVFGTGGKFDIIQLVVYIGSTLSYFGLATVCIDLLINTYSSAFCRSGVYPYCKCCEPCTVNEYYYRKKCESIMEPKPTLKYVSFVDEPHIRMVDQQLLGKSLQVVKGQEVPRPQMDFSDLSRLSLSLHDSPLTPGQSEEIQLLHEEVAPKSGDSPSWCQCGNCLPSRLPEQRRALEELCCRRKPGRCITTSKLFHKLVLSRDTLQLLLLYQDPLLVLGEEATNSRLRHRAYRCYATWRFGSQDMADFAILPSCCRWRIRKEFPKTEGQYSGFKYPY
As to the kind of experiment: agonist dose-response, PI dye uptake in J774.G8 cells, plate reader.

For test [2], the target named is T1, P2X7 receptor (mP2X7R). As to the kind of experiment: inhibition of ATP-induced PI dye uptake in J774.G8 cells, plate reader.
Test [3] addresses T1, P2X7 receptor (mP2X7R). Put plainly: inhibition of ATP-induced dye uptake in J774.G8 cells, plate reader.
In test [4] the target is T2, P2X7 receptor (P2X7R) (Homo sapiens, UniProt Q99572).
T2 construct: gene P2RX7; native in U937 human monocyte cells
T2 sequence (Q99572 1-595): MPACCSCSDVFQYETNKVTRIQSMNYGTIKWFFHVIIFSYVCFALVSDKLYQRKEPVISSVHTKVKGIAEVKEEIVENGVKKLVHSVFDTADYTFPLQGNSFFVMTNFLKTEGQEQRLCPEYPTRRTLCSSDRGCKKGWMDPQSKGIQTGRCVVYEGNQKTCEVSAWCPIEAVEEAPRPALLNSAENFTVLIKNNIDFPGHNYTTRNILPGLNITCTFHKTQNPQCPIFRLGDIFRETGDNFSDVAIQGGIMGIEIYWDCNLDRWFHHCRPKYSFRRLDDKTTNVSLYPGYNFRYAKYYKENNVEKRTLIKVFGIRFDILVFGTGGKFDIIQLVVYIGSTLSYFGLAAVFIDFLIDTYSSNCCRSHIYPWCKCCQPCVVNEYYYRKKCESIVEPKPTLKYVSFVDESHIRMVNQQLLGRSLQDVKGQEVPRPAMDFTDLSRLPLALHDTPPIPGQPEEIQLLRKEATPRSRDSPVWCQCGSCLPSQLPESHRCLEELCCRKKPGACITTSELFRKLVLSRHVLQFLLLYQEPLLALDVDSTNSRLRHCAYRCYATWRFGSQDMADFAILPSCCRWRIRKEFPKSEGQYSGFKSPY
Put plainly: block of ATP-induced PI dye uptake in U937 cells at a single concentration ([…]).

Test [5] concerns the target T1, P2X7 receptor (mP2X7R). As to the kind of experiment: block of ATP-induced PI dye uptake in J774.G8 cells at a single concentration ([…]).

In test [1], `Nc1ncnc2c1ncn2[C@@H]1O[C@H](COP(=O)(O)OP(=O)(O)OP(=O)(O)O)[C@@H](O)[C@H]1O` [ATP] displayed an EC50 of 700 ± 70 µM. With `CCOc1ccc(Nc2ccc(/C(=C3C=C/C(=[N+](/CC)Cc4cccc(S(=O)(=O)[O-])c4)C=C/3C)c3ccc(N(CC)Cc4cccc(S(=O)(=O)O)c4)cc3C)cc2)cc1` [BBG, Brilliant Blue G], the IC50 in test [2] was in the range of 1.3 to 2.6 µM.

In test [3], `Nc1ncnc2c1ncn2[C@@H](C=O)O[C@@H](C=O)COP(=O)(O)OP(=O)(O)OP(=O)(O)O` [OATP, oxidized ATP] showed an IC50 of 173 to 285 µM. Take `O=C1CSC(=O)N1C(CCc1ccncc1)COc1ccc(-c2cccc([N+](=O)[O-])c2)cc1` (centres unmarked) [AZ, AZ11645373]: in test [4], the “block of ATP-induced PI dye uptake in U937 cells at a single concentration (10 μ)” value was “the treatment with the selective P2X7R antagonist AZ11645373 blocked the dye uptake”. In addition, in test [5], the “block of ATP-induced PI dye uptake in J774.G8 cells at a single concentration (1)” value was “the treatment with the selective P2X7R antagonist AZ11645373 blocked the dye uptake”.
